In patent US20110039762A1, “TARGETED ANTIMICROBIAL MOIETIES” (C3 JIAN, INC., priority 2009, published 2011):
Entries after “also recorded” stand apart in the source; their conditions may differ.

Key:
[1] = test system: E. coli; test: Kill or inhibit growth/proliferation; morphology, biofilm and growth disruption (Tables 5, 6); assay type: cell-based, Escherichia coli; parameters: key: A: Peptide aggregates; B: Less hyphal formation; Clumps; Diffuse clumps and small polyps; F: Diffuse growth; H: Thin; I: Growth inhibition; Microcolony formation; Rippled; Small polyps; Thick; W: Halo formation on top, microlonies on bottom; also: test concentration or dose not given here
[2] = test system: microorganisms (e.g., bacteria, yeasts, fungi); test: Targeting peptide binding to target microorganisms (Table 3); conditions: preferably 1x PBS; for Target(s): microorganism(s) the targeting peptide binds; for Target(s) (microorganisms bound by the targeting peptide): peptide binding in aqueous buffers varied by peptide solubility
[3] = test system: microorganisms; test: Peptides having multiple activities (targeting/binding, antimicrobial, growth or phenotype altering)
From the text: In certain embodiments, peptides described herein can have multiple activities. Thus for example, a peptide can have both binding/targeting activity and antimicrobial activity. Such peptides can be used, e.g., in a chimeric construct, for any or all of these properties. Thus, for example, a peptide designated “B” in Table 8 can be used as a targeting peptide. If it is also designated G or M it can also be used for antimicrobial activity.

[4] = test system: S. epidermidis; test: Kill or inhibit growth/proliferation; morphology, biofilm and growth disruption (Tables 5, 6); assay type: cell-based, Staphylococcus epidermidis; parameters: key: A: Peptide aggregates; B: Less hyphal formation; Clumps; Diffuse clumps and small polyps; F: Diffuse growth; H: Thin; I: Growth inhibition; Microcolony formation; Rippled; Small polyps; Thick; W: Halo formation on top, microlonies on bottom; also: test concentration or dose not given here
[5] = test system: MRSA; test: as above; assay type: cell-based, Methicillin-resistant Staphylococcus aureus; parameters: key: A: Peptide aggregates; B: Less hyphal formation; Clumps; Diffuse clumps and small polyps; F: Diffuse growth; H: Thin; I: Growth inhibition; Microcolony formation; Rippled; Small polyps; Thick; W: Halo formation on top, microlonies on bottom; also: test concentration or dose not given here
[6] = test system: S. pneumoniae; test: as above; assay type: cell-based, Streptococcus pneumoniae; parameters: key: A: Peptide aggregates; B: Less hyphal formation; Clumps; Diffuse clumps and small polyps; F: Diffuse growth; H: Thin; I: Growth inhibition; Microcolony formation; Rippled; Small polyps; Thick; W: Halo formation on top, microlonies on bottom; also: test concentration or dose not given here
[7] = test system: E. faecalis; test: as above; assay type: cell-based, Enterococcus faecalis; parameters: key: A: Peptide aggregates; B: Less hyphal formation; Clumps; Diffuse clumps and small polyps; F: Diffuse growth; H: Thin; I: Growth inhibition; Microcolony formation; Rippled; Small polyps; Thick; W: Halo formation on top, microlonies on bottom; also: test concentration or dose not given here
[8] = binding in aqueous buffers depending on peptide solubility
[9] = peptide binding conducted in aqueous buffers varied by peptide solubility

Row | Substance | Organism, effect [1] | Target(s) [2, 8] | Activities [3] | Organism, effect [4] | Organism, effect [5] | Target(s) [2, 9] | Organism, effect [6] | Organism, effect [7] | Target(s) (microorganisms bound by the targeting peptide) [2] | Organism, effect (morphology, biofilm and growth disruption) [6] | Organism, effect (morphology, biofilm and growth disruption) [4] | Organism, effect (morphology, biofilm and growth disruption) [7] | Organism, effect (morphology, biofilm and growth disruption) [5]
1 | PF-344: peptide having multiple activities (DERLPEAKAIRNFNGSVMVLGR; Peptide with targeting and/or antimicrobial activity) | E. coli (A) | B. subtilis; also recorded: C. jejuni | G B |  |  |  |  |  |  |  |  |  | 
2 | PF-350: peptide having multiple activities (LAVILRAIVY; Peptide with targeting and/or antimicrobial activity) | E. coli (C) | S. epidermidis; also recorded: E. coli; also recorded: E. faecalis; also recorded: C. jeikeium; also recorded: C. jejuni | G B | S. epidermidis (C) | MRSA (C) |  |  |  |  |  |  |  | 
3 | PF-362: peptide having multiple activities (chain 1 NIERILKEKVWMIRCVE; chain 2 NIERILKEKVWMIRCVE; Peptide with targeting and/or antimicrobial activity) | E. coli (C) | S. epidermidis; also recorded: E. coli; also recorded: P. aeruginosa; also recorded: C. albicans; also recorded: E. faecalis; also recorded: C. jejuni | G B |  | MRSA (C) |  |  |  |  |  |  |  | 
4 | PF-383: peptide having multiple activities (chain 1 WSEIEINTKQSN; chain 2 WSEIEINTKQSN; Peptide with targeting and/or antimicrobial activity) | E. coli (R) | S. epidermidis; also recorded: B. subtilis; also recorded: B. fragilis; also recorded: E. coli; also recorded: C. jejuni | G B | S. epidermidis (C) |  |  |  |  |  |  |  |  | 
5 | PF-385: peptide having multiple activities (chain 1 MIKKSILKIKYYVPVLISLTLILSA; chain 2 MIKKSILKIKYYVPVLISLTLILSA; Peptide with targeting and/or antimicrobial activity) | E. coli (A) | S. epidermidis | G B |  |  | E. coli; also recorded: P. aeruginosa; also recorded: C. albicans; also recorded: E. faecalis |  |  |  |  |  |  | 
6 | PF-407: peptide having multiple activities (KPKNKKEKTVISYEKLLSMY; Peptide with targeting and/or antimicrobial activity) |  |  | G B | S. epidermidis (M) | MRSA (C) |  | S. pneumoniae (R) | E. faecalis (R) |  |  |  |  | 
7 | PF-429: peptide having multiple activities (AATLICVGSGIMSSL; Peptide with targeting and/or antimicrobial activity) |  |  | G B | S. epidermidis (C) | MRSA (C) | S. epidermidis; also recorded: S. pneumoniae; also recorded: C. jeikeium | S. pneumoniae (M) | E. faecalis (C) |  |  |  |  | 
8 | PF-443: peptide having multiple activities (chain 1 KLLYFFNYFENLQQVHLLVQL; chain 2 KLLYFFNYFENLQQVHLLVQL; Peptide with targeting and/or antimicrobial activity) | E. coli (R) |  | G B |  | MRSA (C) |  | S. pneumoniae (C) |  |  |  |  |  | 
9 | PF-447: peptide having multiple activities (chain 1 IDKSRNKDQFSHIFGLYNICSG; chain 2 IDKSRNKDQFSHIFGLYNICSG; Peptide with targeting and/or antimicrobial activity) |  |  | G B | S. epidermidis (C) | MRSA (C) | S. epidermidis; also recorded: M. luteus; also recorded: E. coli; also recorded: S. pneumoniae | S. pneumoniae (C) | E. faecalis (C) |  |  |  |  | 
10 | PF-541 (RRNLNSPNIKTRKRALKIIKQHQRSK; Peptide with targeting and/or antimicrobial activity) | E. coli (H) |  |  |  |  |  | S. pneumoniae (H) |  |  |  |  |  | 
11 | PF-544: peptide having multiple activities (chain 1 FGEKQMRSWWKVHWFHP; chain 2 FGEKQMRSWWKVHWFHP; Peptide with targeting and/or antimicrobial activity) |  |  | G B | S. epidermidis (D) | MRSA (D) |  | S. pneumoniae (M) | E. faecalis (R) |  |  |  |  | 
12 | PF-638: peptide having multiple activities (chain 1 TFILPK; chain 2 TFILPK; Peptide with targeting and/or antimicrobial activity) |  |  | G B | S. epidermidis (R) | MRSA (M) |  | S. pneumoniae (I) | E. faecalis (H) | S. epidermidis and C. albicans and MRSA and C. jeikeium |  |  |  | 
13 | PF-664: peptide having multiple activities (chain 1 DQLCVEYPARVSTG; chain 2 DQLCVEYPARVSTG; Peptide with targeting and/or antimicrobial activity) |  |  | G B |  |  |  |  |  | M. smegmatis | S. pneumoniae (M) | S. epidermidis (M) | E. faecalis (R) | MRSA (R)
14 | PF-667 (chain 1 PAHQRLRIDQRLVADRDMVQDYES; chain 2 PAHQRLRIDQRLVADRDMVQDYES; Peptide with targeting and/or antimicrobial activity) |  |  |  |  |  |  |  |  | Mycobacteria spp | S. pneumoniae (R) | S. epidermidis (R) | E. faecalis (R) | MRSA (R)
15 | PF-677 (chain 1 TCRGAGMH; chain 2 TCRGAGMH; Peptide with targeting and/or antimicrobial activity) |  |  |  |  |  |  |  |  | Mycobacteria spp | S. pneumoniae (D) | S. epidermidis (R) | E. faecalis (R) | MRSA (D)
16 | PF-690 (chain 1 MIPLAGDPVSSHRTVEFGVLGTYLVSGGSL; chain 2 MIPLAGDPVSSHRTVEFGVLGTYLVSGGSL; Peptide with targeting and/or antimicrobial activity) |  |  |  |  |  |  |  |  | Mycobacteria spp | S. pneumoniae (M) | S. epidermidis (R) | E. faecalis (R) | MRSA (R)
